Several values for one entry are separate records, joined by “and”; a condition that tells them apart may be missing. Equal values may be shown once. Read-outs that look alike come from different tables or passages of the source.
What was measured:
β-glucosidase [1] = conditions: substrate 0.25 mM, phosphate buffer pH 7.5, 30° C, 120 minutes
Description: (§1) The enzymatic kinetics are achieved in a microplate on soluble enzymatic extracts (A, B, C and D) rich in activities of the cellulase and xylanase type. These extracts are diluted 10 times (substrate 18, FIG. 1) or 100 times (substrate 10, 12 and 14, FIG. 2) in a 50 mM phosphate buffer, NaCl 150 mM, pH=7.5. A volume of 20 μL of diluted enzymatic extract is added to 20 μL of fluorogenic substrate (10, 12, 14 or 18) at 0.25 mM in a 50 mM phosphate buffer, NaCl 150 mM, pH=7.5. The kinetics are achieved at 30° C. The enzymatic hydrolysis of the different fluorogenic substrate is followed for 120 minutes by measuring the fluorescence with excitation and emission wavelengths of: 339 nm and 452 nm for the substrates 10, 12 and 14; 375 nm and 510 nm for the substrate 18.

cellulase = conditions: substrate 0.25 mM in inducing Dubos medium with carboxymethyl-cellulose; 30° C, 24 h; excitation/emission 388/455 nm
Description: (§2) Different control strains are cultivated in an LB medium at 30° C. with stirring (240 rpm) for 18 h. For each strain, the culture is centrifuged (2,500 g, 5 min) and the pellet of cells is washed twice in 5 mL of LB medium (centrifugation at 2,500 g, 5 min). This pellet is used for inoculating at OD=0.005 a culture in an inducing medium (Dubos medium with 2.5 g/L of carboxymethyl-cellulose) containing the fluorogenic substrate (8 or 10) at 0.25 mM. The culture is incubated at 30° C. without stirring for 24 h. Culture supernatant samples are taken at different incubation times in order to be able to follow the occurrence of cellulase or β-glucosidase activities in the culture medium. The occurrence of these activities is followed by measurement of the fluorescence on the culture supernatants in microplates with excitation and emission wavelengths of 388 nm and 455 nm.

[2] = tested on: Bacillus subtilis NCIM 2724
Description: (§3) Two control stains are used: one having a cellulase activity (Bacillus subtilis NCIM 2724) the other one not having any activity (Escherichia coli BL21). Both strains are cultivated in an LB medium at 30° C. with stirring (240 rpm) for 18 h. For each strain, the culture is centrifuged (2 500 g, 5 min) and the pellet of cells is washed twice in 5 mL of an LB medium (centrifugation at 2 500 g, 5 min). This pellet is used for inoculation at OD=0.005 a culture in an inducing medium (Dubos medium with 2.5 g/L of carboxymethyl-cellulose) containing the fluorogenic substrate 8 and 2.5 μM (B. subtilis NCIM 2724) or 10 μM (E. coli BL21) of sulforhodamine. Both of these cell suspensions are used with perfluorinated oil in order to produce an emulsion consisting of two populations of droplets each containing one of the described suspensions. The blue and red fluorescences of the droplets are measured individually, on a sample of the emulsion, during production (t=0 h) and reinjection after having incubated the emulsion for 24 h at 30° C.
(§4) The graphs a and b, shown in FIG. 5, are two dimensional histograms of the red (in abscissas, RFU) and blue (in ordinates, RFU) fluorescence intensities measured on the emulsion during its production (a) and its reinjection after incubation fro 24 h at 30° C. (b). The population density is illustrated by a color code varying from pink (1 droplet) to red (>1,000 droplets) according to a logarithmic scale.

Escherichia coli BL21 = conditions: inactive strain
Description: as §3, §4

β-glucosidase [3] = conditions: substrate 0.25 mM in inducing Dubos medium with carboxymethyl-cellulose; 30° C, 24 h; excitation/emission 388/455 nm
Description: as §2

xylanase = conditions: extracts diluted 100 times; substrate 0.25 mM; phosphate buffer pH 7.5; 30° C; 120 minutes; excitation/emission 339/452 nm
Description: as §1

β-xylosidase = conditions: extracts diluted 100 times; substrate 0.25 mM; phosphate buffer pH 7.5; 30° C; 120 minutes; excitation/emission 339/452 nm
Description: as §1

O=c1cc(CS(=O)(=O)[O-])c2c(cc(O[C@@H]3O[C@H](CO)[C@@H](O)[C@H](O)[C@H]3O)c3ccccc32)o1.[Na+] [substrate 18, sodium β-D-glucoside 5,6-benzo-7-hydroxycoumarin-4-methanesulfonate] was tested, and the “detection of enzymatic activity of type β-glucosidase by fluorescence” value (β-glucosidase [1]; extracts diluted 10 times, excitation/emission 375/510 nm) was “allow detection of the enzymatic activities”.
For O=c1cc(CS(=O)(=O)[O-])c2cc(F)c(O[C@@H]3O[C@H](CO)[C@@H](O[C@@H]4O[C@H](CO)[C@@H](O)[C@H](O)[C@H]4O)[C@H](O)[C@H]3O)c(F)c2o1.[Na+] [substrate 8, sodium β-D-cellobioside 6,8-difluoro-7-hydroxycoumarin-4-methanesulfonate], the “detection of enzymatic activity of the cellulase type on cultures of microorganisms” value (cellulase) was “allow detection of the enzymatic activities”, the “change of blue fluorescence of the droplets” value ([2]; after 24 h of incubation at 30° C, active strain) was “blue fluorescence significantly increased” and the “detection of an activity of the cellulase type on microorganisms within an emulsion” value ([2]; emulsion generated by a microfluidic system, 24 h at 30° C) was “allows detection of an activity of the cellulase type”. The “% of positive droplets” value ([2]; reinjection (t = 24 h) after incubation at 30° C, active strain, 2.5 μM sulforhodamine, threshold 37.56 RFU blue fluorescence) was 27% and 27.61%, the “change of blue fluorescence of the droplets” value (Escherichia coli BL21; after 24 h of incubation at 30° C) was “do not have any increase of their blue fluorescence” and the “% of positive droplets” value (Escherichia coli BL21; reinjection (t = 24 h) after incubation at 30° C, 10 μM sulforhodamine, threshold 37.56 RFU blue fluorescence) was 0.26%.
For O=c1cc(CS(=O)(=O)[O-])c2cc(F)c(O[C@@H]3O[C@H](CO)[C@@H](O)[C@H](O)[C@H]3O)c(F)c2o1.[Na+] [substrate 10, sodium β-D-glucoside 6,8-difluoro-7-hydroxycoumarin-4-methanesulfonate], the “detection of enzymatic activity of the β-glucosidase type on cultures of microorganisms” value (β-glucosidase [3]) was “allow detection of the enzymatic activities” and the “detection of enzymatic activity of type β-glucosidase by fluorescence” value (β-glucosidase [1]; extracts diluted 100 times, excitation/emission 339/452 nm) was “allow detection of the enzymatic activities”.
O=c1cc(CS(=O)(=O)[O-])c2cc(F)c(O[C@@H]3OC[C@@H](O[C@@H]4OC[C@@H](O)[C@H](O)[C@H]4O)[C@H](O)[C@H]3O)c(F)c2o1.[Na+] [substrate 14, sodium β-D-xylobioside 6,8-difluoro-7-hydroxycoumarin-4-methanesulfonate] was tested, and the “detection of enzymatic activity of xylanase type by fluorescence” value (xylanase) was “allow detection of the enzymatic activities”.
In the case of O=c1cc(CS(=O)(=O)[O-])c2cc(F)c(O[C@@H]3OC[C@@H](O)[C@H](O)[C@H]3O)c(F)c2o1.[Na+] [substrate 12, sodium β-D-xyloside 6,8-difluoro-7-hydroxycoumarin-4-methanesulfonate], the “detection of enzymatic activity of type β-xylosidase by fluorescence” value (β-xylosidase) was “allow detection of the enzymatic activities”.
